Structures are written as SMILES.

By IC50 is commonly meant the concentration that inhibits the measured activity by half. One may read the inhibition as how much of the control response was suppressed. One may read the melting point as the temperature of the solid-liquid transition.

For one data set, the target named is T1, hMAO-A (Homo sapiens, UniProt P21397).
T1 sequence (P21397 1-527): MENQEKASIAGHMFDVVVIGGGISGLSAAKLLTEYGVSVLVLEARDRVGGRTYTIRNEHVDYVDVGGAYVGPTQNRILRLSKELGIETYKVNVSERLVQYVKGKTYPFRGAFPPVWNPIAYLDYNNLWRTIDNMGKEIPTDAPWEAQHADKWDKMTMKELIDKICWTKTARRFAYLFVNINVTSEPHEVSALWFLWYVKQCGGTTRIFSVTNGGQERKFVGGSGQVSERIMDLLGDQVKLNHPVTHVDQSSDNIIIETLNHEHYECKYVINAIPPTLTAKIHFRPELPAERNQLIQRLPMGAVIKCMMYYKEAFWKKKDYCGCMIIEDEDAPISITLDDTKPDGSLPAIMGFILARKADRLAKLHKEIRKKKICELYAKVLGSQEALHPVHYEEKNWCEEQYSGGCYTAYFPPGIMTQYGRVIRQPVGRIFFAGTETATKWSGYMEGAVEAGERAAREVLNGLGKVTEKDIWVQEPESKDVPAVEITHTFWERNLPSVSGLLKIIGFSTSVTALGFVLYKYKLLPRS
Description: hMAO inhibition assay (Amplex Red fluorescence), hMAO-A, p-tyramine substrate. The settings on record: for IC50: recombinant hMAO-A. It is filed as biochemical. Here is the method:
The hMAO inhibition assay was performed as previously described. Adequate amounts of recombinant hMAO-A/B were acquired and adjusted to 12.5 µg/mL or 75 µg/mL for hMAO-A or hMAO-B, respectively, with sodium phosphate buffer (50 mM, pH 7.4). The test compounds were dissolved in DMSO as stock solutions (10 mM) and diluted with sodium phosphate buffer (50 mM, pH 7.4) to the corresponding concentrations. Then the test compounds (20 µL) and hMAO (80 µL) were incubated for 15 min at 37 °C in a flat, black-bottomed 96-well microtest plate in the dark. The reaction was initiated by adding Amplex Red reagent (200 µM, final concentration), horseradish peroxidase (2 U/mL, final concentration), and 2 mM p-tyramine for hMAO-A or 2 mM benzylamine (final concetration) for hMAO-B and incubated at 37 °C for 20 min. Activity was quantified in a multi detection microplate fluorescence reader (SpectraMax M5, Molecular Devices, USA) based on the fluorescence generated (excitation, 545 nm; emission, 590 nm). The specific fluorescence emission was calculated after subtraction of the background activity. The background activity was determined from wells containing all components except the hMAO isoforms, which were replaced by a sodium phosphate buffer solution. The percentage inhibition was calculated by the following expression: (1 – IFi/IFc) × 100, in which IFi and IFc are the fluorescence intensities obtained for hMAO in the presence and absence of inhibitors after subtracting the respective background. […]

Another data set deals with T2, hMAO-B (Homo sapiens, UniProt P27338).
T2 sequence (P27338 1-520): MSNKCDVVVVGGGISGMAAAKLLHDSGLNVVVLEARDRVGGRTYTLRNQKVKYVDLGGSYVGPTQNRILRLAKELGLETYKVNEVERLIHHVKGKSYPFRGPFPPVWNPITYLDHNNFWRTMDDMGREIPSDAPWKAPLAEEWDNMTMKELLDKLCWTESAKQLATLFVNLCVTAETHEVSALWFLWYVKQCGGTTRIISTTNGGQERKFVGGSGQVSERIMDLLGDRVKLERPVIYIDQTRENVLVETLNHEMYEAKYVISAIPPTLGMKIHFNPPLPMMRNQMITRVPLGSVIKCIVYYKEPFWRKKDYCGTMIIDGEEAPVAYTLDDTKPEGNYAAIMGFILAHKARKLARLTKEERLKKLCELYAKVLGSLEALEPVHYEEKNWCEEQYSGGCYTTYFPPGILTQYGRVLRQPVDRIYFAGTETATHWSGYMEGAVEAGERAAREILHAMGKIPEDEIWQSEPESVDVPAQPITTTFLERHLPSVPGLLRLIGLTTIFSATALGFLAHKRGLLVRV
The data set is described as follows: hMAO inhibition assay (Amplex Red fluorescence), hMAO-B, benzylamine substrate. It is filed as biochemical. The conditions noted are these: for IC50: recombinant hMAO-B, read-out: hMAO-B IC50; for inhibition at 1 µM: tested concentration 1 µM; for Selectivity Index (SI): SI = IC50 (hMAO-A)/IC50 (hMAO-B); for fold higher inhibitory potency than 4: from IC50, versus compound 4. How it is done: The hMAO inhibition assay was performed as previously described. […] The test compounds were dissolved in DMSO as stock solutions (10 mM) and diluted with sodium phosphate buffer (50 mM, pH 7.4) to the corresponding concentrations. […] The specific fluorescence emission was calculated after subtraction of the background activity. The background activity was determined from wells containing all components except the hMAO isoforms, which were replaced by a sodium phosphate buffer solution. The percentage inhibition was calculated by the following expression: (1 – IFi/IFc) × 100, in which IFi and IFc are the fluorescence intensities obtained for hMAO in the presence and absence of inhibitors after subtracting the respective background.

For `O=C(C=Cc1ccccc1)c1ccccc1` [Compound 1, 1,3-diphenyl-2-propen-1-one], the IC50 on hMAO-A was more than 40 µM; on hMAO-B, 13.04 ± 0.06 µM.
On to `O=C(/C=C/c1ccc2ccccc2c1)c1ccccc1` [Compound 2, (E)-3-(naphthalen-2-yl)-1-phenylprop-2-en-1-one], for which the IC50 at hMAO-A is more than 40 µM. Besides, on hMAO-B, the inhibition at 1 µM was 18.1%.
For the compound `O=C(/C=C/c1ccc2c(c1)OCO2)c1ccccc1` [Compound 3, (E)-3-(benzo[d][1,3]dioxol-5-yl)-1-phenylprop-2-en-1-one], at hMAO-A, the IC50 is more than 40 µM. Testing at 1 µM against hMAO-B gave an inhibition of 50.8%.
Regarding `O=C(/C=C/c1ccc2c(c1)OCCO2)c1ccccc1` [Compound 4, (E)-3-(2,3-dihydrobenzo[b][1,4]dioxin-6-yl)-1-phenylprop-2-en-1-one], at hMAO-A, the IC50 is more than 40 µM. Further, at hMAO-B, the “Selectivity Index (SI)” value is more than 186 and the inhibition at 1 µM came out at 84.9%. The “fold higher hMAO-B inhibition than 1” value on hMAO-B (from IC50, versus compound 1) came to 55 fold.
With `O=C(/C=C/c1ccc2c(c1)OCCO2)c1ccccc1O` [Compound 5, (E)-3-(2,3-dihydrobenzo[b][1,4]dioxin-6-yl)-1-(2-hydroxyphenyl)prop-2-en-1-one], the melting point lay within 120.8 to 122.3 °C. Further, the IC50 at hMAO-A is more than 40 µM. Further, at hMAO-B, the “Selectivity Index (SI)” value is reported as more than 133, the IC50 worked out at 0.3 ± 0.02 µM and 1 µM produced 75% inhibition.
The corresponding values for `COc1cccc(C(=O)/C=C/c2ccc3c(c2)OCCO3)c1` [Compound 6, (E)-3-(2,3-dihydrobenzo[b][1,4]dioxin-6-yl)-1–(3-methoxyphenyl)prop-2-en-1-one] are 94.4 to 95.6 °C, more than 40 µM, more than 118, 0.34 ± 0.01 µM and 78%.
`O=C(/C=C/c1ccc2c(c1)OCCO2)c1ccc(O)cc1` [Compound 7, (E)-3–(2,3-dihydrobenzo[b][1,4]dioxin-6-yl)-1-(4-hydroxyphenyl)prop-2-en-1-one]: the IC50 on hMAO-A is more than 40 µM. This compound also displayed an inhibition at 1 µM against hMAO-B of 26%.
In turn, `COc1ccc(C(=O)/C=C/c2ccc3c(c2)OCCO3)cc1` [Compound 8, (E)-3–(2,3-dihydrobenzo[b][1,4]dioxin-6-yl)-1-(4-methoxyphenyl)prop-2-en-1-one] came in with a melting point of 93.8 to 94.9 °C. In addition, at hMAO-A, the 50% inhibitory concentration (IC50) was more than 40 µM. Besides, testing at 1 µM at hMAO-B gave an inhibition of 51.7%.
The compound `O=C(/C=C/c1ccc2c(c1)OCCO2)c1cccc(O)c1` [Compound 9, (E)-3–(2,3-dihydrobenzo[b][1,4]dioxin-6-yl)-1-(3-hydroxyphenyl)prop-2-en-1-one] returned a melting point of 196.8 to 198.5 °C. For the same compound, the IC50 on hMAO-A was more than 40 µM. In addition, on hMAO-B, the “Selectivity Index (SI)” value is more than 267, the IC50 amounted to 0.15 ± 0.007 µM and the inhibition at 1 µM was 86.3%.
Take `O=C(/C=C/c1ccc2c(c1)OCCO2)c1ccc(O)cc1O` [Compound 10, (E)-3-(2,3-dihydrobenzo[b][1,4]dioxin-6-yl)-1–(2,4-dihydroxyphenyl)prop-2-en-1-one]: the melting point lay in the range of 169.5 to 170.8 °C. In addition, the IC50 at hMAO-A is more than 40 µM. At hMAO-B, the inhibition at 1 µM was determined as 69.5%.
Consider `COc1ccc(C(=O)/C=C/c2ccc3c(c2)OCCO3)cc1OC` [Compound 11, (E)-3–(2,3-dihydrobenzo[b][1,4]dioxin-6-yl)-1–(3,4-dimethoxyphenyl)prop-2-en-1-one], for which the melting point fell in the range of 110 to 111.1 °C. Also, the IC50 on hMAO-A was more than 40 µM. For the same compound, the inhibition at 1 µM at hMAO-B came out at 22.4%.
For `O=C(/C=C/c1ccc2c(c1)OCCO2)c1ccccc1F` [Compound 12, (E)-3–(2,3-dihydrobenzo[b][1,4]dioxin-6-yl)-1-(2-fluorophenyl)prop-2-en-1-one], the melting point is 93.7 to 95.4 °C. Besides, the IC50 at hMAO-A is more than 40 µM. For the same compound, on hMAO-B, the “Selectivity Index (SI)” value was more than 333, the “fold higher inhibitory potency than 4” value is 1.8–4.1 fold, the IC50 worked out at 0.12 ± 0.01 µM and 1 µM produced 89.2% inhibition.
The compound `O=C(/C=C/c1ccc2c(c1)OCCO2)c1ccccc1Cl` [Compound 13, (E)-1-(2-chlorophenyl)-3-(2,3-dihydrobenzo[b][1,4]dioxin-6-yl)prop-2-en-1-one] displayed a melting point of 67.5 to 69.4 °C. In addition, the IC50 at hMAO-A is more than 40 µM. In addition, on hMAO-B, the “Selectivity Index (SI)” value is recorded as more than 741, the “fold higher inhibitory potency than 4” value is reported as 1.8–4.1 fold, the IC50 amounted to 0.054 ± 0.006 µM and 1 µM produced 92.4% inhibition.
As for `O=C(/C=C/c1ccc2c(c1)OCCO2)c1ccccc1Br` [Compound 14, (E)-1-(2-bromophenyl)-3-(2,3-dihydrobenzo[b][1,4]dioxin-6-yl)prop-2-en-1-one], the melting point is 70.3 to 72.2 °C. Besides, the IC50 at hMAO-A is more than 40 µM. At hMAO-B, the “Selectivity Index (SI)” value was more than 494, the “fold higher inhibitory potency than 4” value is on record as 1.8–4.1 fold, the IC50 was 0.081 ± 0.004 µM and the inhibition at 1 µM is 92.6%.
For `O=C(/C=C/c1ccc2c(c1)OCCO2)c1cccc(F)c1` [Compound 15, (E)-3-(2,3-dihydrobenzo[b][1,4]dioxin-6-yl)-1-(3-fluorophenyl)prop-2-en-1-one], the IC50 at hMAO-A is more than 40 µM. For the same compound, on hMAO-B, the “Selectivity Index (SI)” value was more than 308, the “fold higher inhibitory potency than 4” value is 1.7–4 fold, the IC50 was 0.13 ± 0.007 µM and the inhibition at 1 µM came to 89.2%.
For `O=C(/C=C/c1ccc2c(c1)OCCO2)c1ccc(Cl)cc1` [Compound 18, (E)-1–(4-chlorophenyl)-3–(2,3-dihydrobenzo[b][1,4]dioxin-6-yl)prop-2-en-1-one], the IC50 on hMAO-A was more than 40 µM. On hMAO-B, this compound yielded an inhibition at 1 µM of 69.9%.
Consider `O=C(/C=C/c1ccc2c(c1)OCCO2)c1ccc(Br)cc1` [Compound 19, (E)-1–(4-bromophenyl)-3–(2,3-dihydrobenzo[b][1,4]dioxin-6-yl)prop-2-en-1-one], for which the melting point fell in the range of 136.7 to 138.2 °C. On hMAO-A, the IC50 was more than 40 µM. 1 µM produced 68.1% inhibition at hMAO-B.
In turn, `O=C(/C=C/c1ccc2c(c1)OCCO2)c1ccc(F)cc1` [Compound 20, (E)-3-(2,3-dihydrobenzo[b][1,4]dioxin-6-yl)-1-(4-fluorophenyl)prop-2-en-1-one] returned a melting point of 135.5 to 136.5 °C. The IC50 at hMAO-A was more than 40 µM. Further, on hMAO-B, the “Selectivity Index (SI)” value is listed as more than 588, the IC50 turned out to be 0.068 ± 0.007 µM and the inhibition at 1 µM came out at 87.5%.
`O=C(/C=C/c1ccc2c(c1)OCO2)c1ccc(Cl)cc1` [Compound 28, (E)-3-(benzo[d][1,3]dioxol-5-yl)-1-(4-chlorophenyl)prop-2-en-1-one]: the IC50 on hMAO-A is more than 40 µM. The compound also yielded an inhibition at 1 µM against hMAO-B of 57.5%.
For `C#CCN(C)CCCOc1ccc(Cl)cc1Cl` [clorgyline, reference compound], the inhibition at 0.1 µM at hMAO-A (read-out: hMAO-A % inhibition) was determined as 86.6%.

The values are drawn from paper PMC7470127, “Design, synthesis, and evaluation of 1, 4-benzodioxan-substituted chalcones as selective and reversible inhibitors of human monoamine oxidase B” (Journal of Enzyme Inhibition and Medicinal Chemistry, 2020).
